Results: PMC5984089, “FBXW7 regulates DISC1 stability via the ubiquitin-proteosome system” (Molecular Psychiatry, 2017)
Residues, ends and D or L forms follow the SMILES beside them. *: point of attachment. Cbz = O=C(OCc1ccccc1)*

Test system: DISC1, neural progenitors derived from control subjects
Assay: DISC1 protein level in control iPS-derived neural progenitors, western blot
Type: cell-based, human
Conditions: MG132 10 µM, day 18, up to 3 hours, n=2, western blot
Description: All iPS derived neural progenitors were provided by Pfizer Neuroscience (Cambridge, MA, USA). The iPS cell lines D2 and D3 and family control cell line C1 were generated using a non-integrated approach by Dr Hongjun Song at Johns Hopkins University and cultured as described previously.[8] The Detroit iPS cell line was generated by Dr S. Engle at Pfizer Neuroscience. Detroit 551 fibroblasts were obtained from ATCC (CCL-110) and maintained in Knockout DMEM (Life Technologies 10829-018), 15% FBS (Life Technologies), 1x Non-essential amino acids (Life Technologies 11140-050), 2 mM L-glutamine (Life Technologies 25030-081), 1x Gentamicin (Life Technologies 15710-072), 0.1 mM β-mercaptoethanol (Sigma M-7522). The cells were reprogrammed with individual lentiviruses expressing c-MYC, KLF4, SOX2, OCT3/4, NANOG, and LIN28. One colony, Detroit 551-3, with ES-like morphology, high expression of pluripotency markers (for example, OCT3/4, TRA-1-60, TRA-1-81, SSEA4), a normal karyotype, […] the ability to form all three germ layers in a teratoma assay was used in all subsequent experiments. […]

Compound: CC(C)C[C@@H](C=O)NC(=O)[C@H](CC(C)C)NC(=O)[C@H](CC(C)C)NC(=O)OCc1ccccc1 [MG132] (Cbz-Leu-Leu-Leu-aldehyde)
- DISC1 protein level in NPs from Detroit (control) iPS cells, proteasomal inhibition: stabilization of DISC1 protein levels within first 30 min up to 3 hours
